Measurements taken from paper PMC5531637, “The effect of mangiferin on skin: Penetration, permeation and inhibition of ECM enzymes” (PLoS ONE, 2017).

Experiments:
[1] = target: porcine pancreatic elastase (Sus scrofa, UniProt P00772); assay: Spectrophotometric elastase assay with SANA as substrate; type: biochemical
Experimental: A spectrophotometric elastase assay was performed as previously described [25], with N-Succ-(-Ala)3-p-nitroanilide (SANA) as the substrate. […] The addition of SANA started the reaction. Changes in product formation: p-nitroaniline was recorded every 20 seconds for 20 minutes in the absorbance λ = 410 nm with the use of the Epoch (BioTek System) spectrophotometer in 96-well plates (BIOCOM SYSTEMS). The oleanolic acid was used as a control [26]. Kinetic parameters Vo, Km and Vmax were calculated according to Michaelis-Menten and Lineweaver-Burk plots and analyzed in the GraphPad prism program and Excel.
As stated by the data supplier: 1U elastase hydrolyses 1 μM SANA/min at pH 8 and 25°C. The molar absorption coefficient of p-nitroaniline is 9800 M^–1 cm^–1.

[2] = target: Collagenase from Clostridium histolyticum; assay: Spectrophotometric collagenase assay with FALGPA as substrate; type: biochemical
Experimental: A spectrophotometric collagenase assay was performed as previously described, with N-[3- (2-Furyl) acryloyl]- Leu- Gly- Pro-Ala (FALGPA) as the substrate. […] The reaction mixtures were preincubated with mangiferin solutions for 15 minutes at room temperature. The addition of FALGPA started the reaction. Changes in product formation were recorded every 20 seconds for 20 minutes in the absorbance λ = 335 nm with the use of the Epoch (BioTek System) spectrophotometer in 96-well plates (BIOCOM SYSTEMS). Oleanolic acid was used as a control. The kinetic parameters Vo, Km and Vmax were calculated according to Michaelis-Menten and Lineweaver-Burk plots and analyzed in the GraphPad prism program and Excel.
As stated by the data supplier: 1U of collagenase hydrolyses […] FALGPA/min at pH 7.5 and 25°C, in the presence of calcium ions.

[3] = type: in vitro ADME; conditions: human, 25 μg/ml
Experimental: The studies were performed using human cadaver full skin (thickness of 0.75 mm) obtained from the region of the thorax of 40–60 years old donors. The study was reviewed and approved by the Independent Bioethics Commission for Research of the Medical University of Gdansk (number NKBBN/120-41/2014). Before the experiment, the skin was stored frozen at -20 °C. The preparations were applied as an infinite dose (0.5 ml mangiferin solution at concentration of 25 μg/ml) on the surface of the skin placed in the flow-through Teflon® diffusion chamber (Crown Glass, USA), and left for 24 h. The diffusion area of the skin was 0.65 cm^2. The donor compartment of the chamber remained occluded, and the system was maintained at the temperature 37°C ± 0.5°C. Saline solution, 20 ml, preserved with 0.005% sodium azide (Fluka, Buchs, Switzerland) was recirculated beneath the skin with a constant rate of 10 ml/h. Acceptor fluid ensured the sink condition. After the penetrants were removed from the skin, the stratum corneum was separated by tape-stripping method, using 30 fragments of an adhesive tape (3M Medica Pharma, St. Paul, MN, USA). The following parameters were employed: pressure about 1 kg/cm^2 (applied by stamp), 2 s duration of pressure, and a rapid removal rate at an angle of 45^o. The skin layers were isolated by the heat separation technique. […]

[4] = parameters: method as in ref 21 = [21]; 21 Nuñez-Selles AJ . Antioxidant therapy: myth or reality? J Braz Chem Soc . 2005; 16 : 699 – 710 .; conditions: cited from earlier work
[5] = parameters: method as in ref 18 = [18]; 18 Acosta J , Sevilla I , Salomón S , Nuevas L , Romero A , Amaro D . Determination of mangiferin solubility in solvents used in the biopharmaceutical industry . Pharm Pharmacogn Res . 2016; 4 ( 2 ):; conditions: cited from earlier work
[6] = test system: human acute myeloid leukemia cell line HL-60; parameters: method as in PMID 21547680; conditions: cited from earlier work
[7] = test system: human cervix adenocarcinoma cell line (HeLa); parameters: method as in PMID 24633329; conditions: cited from earlier work
mice = conditions: 2 g/kg; cited from earlier work
rats = conditions: 2 g/kg; cited from earlier work

Sequence of porcine pancreatic elastase (P00772 27-266): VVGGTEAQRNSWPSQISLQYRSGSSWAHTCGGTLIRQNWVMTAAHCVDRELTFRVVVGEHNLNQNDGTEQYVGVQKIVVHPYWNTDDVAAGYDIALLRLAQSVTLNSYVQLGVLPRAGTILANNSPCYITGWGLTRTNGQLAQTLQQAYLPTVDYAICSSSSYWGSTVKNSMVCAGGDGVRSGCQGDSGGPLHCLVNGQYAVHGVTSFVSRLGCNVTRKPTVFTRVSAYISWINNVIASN

Question: What does the source list for `O=c1c2cc(O)c(O)cc2oc2cc(O)c([C@@H]3O[C@H](CO)[C@@H](O)[C@H](O)[C@H]3O)c(O)c12` [mangiferin, 2-C-β-D-glucopyranosyl-1,3,6,7-tetrahydroxyxanthone]?
Answer: type of elastase inhibition ([1]; Lineweaver-Burk plots, 0, 59, 118 and 177 μM): noncompetitive; IC50 ([1]; SANA 0.8 mM, pH 8, 15 min preincubation, read-out: concentration leading to a 50% loss of elastase activity (IC50)): 140 ± 9.34 µM; concentrations that inactivated elastase almost completely ([1]; SANA substrate): above 473 μM; reversibility of elastase inhibition ([1]; activity vs enzyme concentration plots, 0, 59, 118 and 177 μM): reversible; potency on elastase relative to oleanolic acid (fold lower) ([1]; vs reference oleanolic acid): 4.2 fold; IC50 ([2]; FALGPA 0.8 mM, pH 7.5, 15 min preincubation, read-out: concentration leading to a 50% loss of collagenase activity (IC50)): 254 ± 7.56 µM; concentrations that inactivated collagenase almost completely ([2]; FALGPA substrate): above 500 μM; type of collagenase inhibition ([2]; Lineweaver-Burk plots): noncompetitive; reversibility of collagenase inhibition ([2]; activity vs enzyme concentration plots): reversible; potency on collagenase relative to oleanolic acid (fold lower) ([2]; vs reference oleanolic acid): 4.9 fold; amount permeated through the skin from ethanol solution relative to water solution [3]: about 2 fold; concentration in the acceptor fluid after 24 hours relative to after 2 hours [3]: about 2 fold; log P [4]: 2.73; solubility in ethanol ([5]; ethanol): slightly soluble; solubility in nonpolar solvents ([5]; some nonpolar solvents (e.g. n-hexane, diethyl ether)): practically insoluble; solubility in water ([5]; water): sparingly soluble; apoptosis in HL-60 cells [6]: induce apoptosis; effect on apoptotic effects of hesperidin in HeLa cells [7]: enhanced apoptotic effects of hesperidin; dermal acute toxicity (mice): did not show toxic effects; dermal acute toxicity (rats): did not show toxic effects
